Experimental data as given in PubChem BioAssay (NCI).
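These data come from cells grown in 96-well plates and exposed to compound for 48 hours at five concentrations. TGI: concentration producing complete growth inhibition.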

Columns and labels:
Assay in all cases: inhibition of tumour cell growth, NCI panel, 48 h
[1] = system: UACC-257 melanoma
[2] = system: A549 NSCLC
[3] = system: UO-31 renal
[4] = system: NCI-H23 lung
[5] = system: HCT-15 colon
[6] = system: HOP-92 NSCLC
[7] = system: ACHN renal
[8] = system: KM12 colon
[9] = system: CAKI-1 renal
[10] = system: U251 CNS
[11] = system: 786-0 renal
[12] = system: LOX IMVI melanoma
[13] = system: IGROV1 ovarian
[14] = system: DMS 273 small cell lung
[15] = system: SF-295 CNS
[16] = system: SK-MEL-2 melanoma
[17] = system: SF-539 CNS
[18] = system: RXF-631 renal
[19] = system: MOLT-4 leukemia
[20] = system: OVCAR-5 ovarian
[21] = system: NCI-H522 lung
[22] = system: HL-60(TB) leukemia
[23] = system: LXFL 529 NSCLC
[24] = system: SK-MEL-5 melanoma
[25] = system: A498 renal
[26] = system: M14 melanoma
[27] = system: OVCAR-8 ovarian
[28] = system: NCI-H226 lung
[29] = system: COLO 205 colon
[30] = system: RXF 393 renal
[31] = system: K-562 leukemia
[32] = system: HT29 colon
[33] = system: CCRF-CEM leukemia
[34] = system: OVCAR-3 ovarian
[35] = system: DLD-1 colon
[36] = system: TK-10 renal
[37] = system: HOP-62 NSCLC
[38] = system: DMS 114 small cell lung
[39] = system: XF 498 CNS
[40] = system: SF-268 CNS
[41] = system: KM20L2 colon
[42] = system: UACC-62 melanoma
[43] = system: SK-MEL-28 melanoma
[44] = system: OVCAR-4 ovarian
[45] = system: SNB-75 CNS
[46] = system: HCT-116 colon
[47] = system: SN12C renal
[48] = system: SW-620 colon
[49] = system: HCC-2998 colon
[50] = system: M19-MEL melanoma
[51] = system: EKVX NSCLC
[52] = system: MALME-3M melanoma
[53] = system: RPMI-8226 leukemia
[54] = system: SNB-78 CNS
[55] = system: SNB-19 CNS
[56] = system: NCI-H460 lung
[57] = system: SR leukemia
[58] = system: SK-OV-3 ovarian
[59] = system: HOP-18 NSCLC

CN=C1Nc2ccc(Cl)cc2C(c2ccccc2)=NN1C
TGI [1]: > 100 µM
TGI [2]: > 100 µM
TGI [3]: > 100 µM
TGI [4]: > 100 µM
TGI [5]: > 100 µM
TGI [6]: 77.5 µM
TGI [7]: > 100 µM
TGI [8]: > 100 µM
TGI [9]: > 100 µM
TGI [10]: > 100 µM
TGI [11]: > 100 µM
TGI [12]: > 100 µM
TGI [13]: > 100 µM
TGI [14]: > 100 µM
TGI [15]: > 100 µM
TGI [16]: > 100 µM
TGI [17]: > 100 µM
TGI [18]: > 100 µM
TGI [19]: > 100 µM
TGI [20]: > 100 µM
TGI [21]: > 100 µM
TGI [22]: > 100 µM
TGI [23]: > 100 µM
TGI [24]: > 100 µM
TGI [25]: > 100 µM
TGI [26]: > 100 µM
TGI [27]: > 100 µM
TGI [28]: > 100 µM
TGI [29]: > 100 µM
TGI [30]: 81.1 µM
TGI [31]: > 100 µM
TGI [32]: > 100 µM
TGI [33]: > 100 µM
TGI [34]: > 100 µM
TGI [35]: > 100 µM
TGI [36]: > 100 µM
TGI [37]: > 100 µM
TGI [38]: > 100 µM
TGI [39]: > 100 µM
TGI [40]: > 100 µM
TGI [41]: > 100 µM
TGI [42]: > 100 µM
TGI [43]: > 100 µM
TGI [44]: > 100 µM
TGI [45]: > 100 µM
TGI [46]: > 100 µM
TGI [47]: > 100 µM
TGI [48]: > 100 µM
TGI [49]: 64.7 µM
TGI [50]: > 100 µM
TGI [51]: > 100 µM
TGI [52]: > 100 µM
TGI [53]: > 100 µM
TGI [54]: > 100 µM
TGI [55]: > 100 µM
TGI [56]: > 100 µM

O=C(NCc1ccccc1)c1cc2cc(O)c(O)cc2cn1
TGI [1]: 73.1 µM
TGI [2]: > 100 µM
TGI [3]: 56.6 µM
TGI [4]: 46.8 µM
TGI [5]: > 100 µM
TGI [57]: > 100 µM
TGI [6]: > 100 µM
TGI [7]: > 100 µM
TGI [8]: > 100 µM
TGI [9]: 98.5 µM
TGI [10]: > 100 µM
TGI [11]: > 100 µM
TGI [12]: 66.4 µM
TGI [13]: 73.2 µM
TGI [14]: 23.2 µM
TGI [15]: > 100 µM
TGI [16]: 97.6 µM
TGI [17]: > 100 µM
TGI [20]: 79.6 µM
TGI [58]: > 100 µM
TGI [21]: > 100 µM
TGI [22]: 48.6 µM
TGI [23]: > 100 µM
TGI [24]: 50.9 µM
TGI [25]: > 100 µM
TGI [26]: 43.1 µM
TGI [59]: 41.4 µM
TGI [27]: 89.7 µM
TGI [28]: 89.9 µM
TGI [29]: > 100 µM
TGI [30]: 62.3 µM
TGI [31]: > 100 µM
TGI [32]: 70.4 µM
TGI [33]: > 100 µM
TGI [34]: > 100 µM
TGI [35]: > 100 µM
TGI [36]: > 100 µM
TGI [37]: 81.1 µM
TGI [38]: 24 µM
TGI [39]: 90.3 µM
TGI [40]: 75.1 µM
TGI [41]: 84.6 µM
TGI [42]: 44.8 µM
TGI [43]: > 100 µM
TGI [44]: > 100 µM
TGI [45]: 84.5 µM
TGI [46]: > 100 µM
TGI [47]: > 100 µM
TGI [48]: > 100 µM
TGI [49]: > 100 µM
TGI [50]: 77.3 µM
TGI [51]: > 100 µM
TGI [52]: > 100 µM
TGI [53]: > 100 µM
TGI [54]: > 100 µM
TGI [55]: > 100 µM
TGI [56]: 91.6 µM

CCOc1ccccc1N=Nc1c(-c2ccccc2)nn(C(=O)CC(=O)Nc2cccc(Cl)c2)c1-c1ccccc1
TGI [1]: > 100 µM
TGI [2]: > 100 µM
TGI [3]: > 100 µM
TGI [4]: > 100 µM
TGI [57]: > 100 µM
TGI [6]: > 100 µM
TGI [7]: > 100 µM
TGI [8]: > 100 µM
TGI [9]: > 100 µM
TGI [10]: > 100 µM
TGI [11]: > 100 µM
TGI [12]: > 100 µM
TGI [13]: > 100 µM
TGI [14]: > 100 µM
TGI [15]: > 100 µM
TGI [16]: > 100 µM
TGI [17]: > 100 µM
TGI [19]: > 100 µM
TGI [20]: > 100 µM
TGI [58]: > 100 µM
TGI [21]: > 100 µM
TGI [22]: > 100 µM
TGI [23]: > 100 µM
TGI [24]: > 100 µM
TGI [26]: > 100 µM
TGI [59]: > 100 µM
TGI [27]: > 100 µM
TGI [28]: > 100 µM
TGI [29]: > 100 µM
TGI [30]: > 100 µM
TGI [31]: > 100 µM
TGI [32]: > 100 µM
TGI [33]: > 100 µM
TGI [34]: > 100 µM
TGI [35]: > 100 µM
TGI [36]: > 100 µM
TGI [37]: > 100 µM
TGI [38]: > 100 µM
TGI [39]: > 100 µM
TGI [40]: > 100 µM
TGI [41]: > 100 µM
TGI [42]: > 100 µM
TGI [43]: > 100 µM
TGI [44]: > 100 µM
TGI [45]: > 100 µM
TGI [46]: > 100 µM
TGI [47]: > 100 µM
TGI [48]: > 100 µM
TGI [49]: > 100 µM
TGI [50]: > 100 µM
TGI [51]: > 100 µM
TGI [52]: > 100 µM
TGI [53]: > 100 µM
TGI [54]: > 100 µM
TGI [55]: > 100 µM
TGI [56]: > 100 µM

N/C(=N\N=C\c1cccs1)NO
TGI [1]: > 100 µM
TGI [2]: > 100 µM
TGI [3]: > 100 µM
TGI [4]: > 100 µM
TGI [5]: > 100 µM
TGI [57]: > 100 µM
TGI [6]: > 100 µM
TGI [7]: > 100 µM
TGI [8]: > 100 µM
TGI [9]: > 100 µM
TGI [10]: > 100 µM
TGI [11]: > 100 µM
TGI [13]: > 100 µM
TGI [14]: > 100 µM
TGI [15]: > 100 µM
TGI [16]: > 100 µM
TGI [17]: > 100 µM
TGI [18]: > 100 µM
TGI [20]: > 100 µM
TGI [58]: > 100 µM
TGI [21]: > 100 µM
TGI [22]: > 100 µM
TGI [23]: > 100 µM
TGI [25]: > 100 µM
TGI [26]: > 100 µM
TGI [59]: > 100 µM
TGI [27]: > 100 µM
TGI [28]: > 100 µM
TGI [29]: > 100 µM
TGI [30]: > 100 µM
TGI [31]: > 100 µM
TGI [32]: > 100 µM
TGI [33]: > 100 µM
TGI [34]: > 100 µM
TGI [35]: > 100 µM
TGI [36]: > 100 µM
TGI [37]: > 100 µM
TGI [38]: > 100 µM
TGI [39]: > 100 µM
TGI [40]: > 100 µM
TGI [42]: 51 µM
TGI [43]: > 100 µM
TGI [44]: > 100 µM
TGI [45]: > 100 µM
TGI [46]: > 100 µM
TGI [47]: > 100 µM
TGI [48]: > 100 µM
TGI [49]: > 100 µM
TGI [50]: > 100 µM
TGI [51]: > 100 µM
TGI [52]: > 100 µM
TGI [54]: > 100 µM
TGI [55]: > 100 µM
TGI [56]: > 100 µM
